Source: patent US20250313535A1, “ALPHA 4 BETA 7 INTEGRIN MODULATORS AND USES THEREOF” (DICE MOLECULES SV, INC., priority 2022, published 2025)
pIC50: −log10 of the molar value. Read-outs that look alike come from different tables or passages of the source. Each block holds one molecule with its values, some of them ahead of it.

Columns and labels:
Format in all cases: cell-based
α4β7 integrin [1] = target: T1, α4β7 integrin (Homo sapiens (Human), UniProt P13612+P26010); test: Integrin Adhesion Assay: Protocol 1 (MAdCAM-coated plate, RPMI-8866 cells, CellTiter GLO readout)
T1 sequence (P13612 34-1032): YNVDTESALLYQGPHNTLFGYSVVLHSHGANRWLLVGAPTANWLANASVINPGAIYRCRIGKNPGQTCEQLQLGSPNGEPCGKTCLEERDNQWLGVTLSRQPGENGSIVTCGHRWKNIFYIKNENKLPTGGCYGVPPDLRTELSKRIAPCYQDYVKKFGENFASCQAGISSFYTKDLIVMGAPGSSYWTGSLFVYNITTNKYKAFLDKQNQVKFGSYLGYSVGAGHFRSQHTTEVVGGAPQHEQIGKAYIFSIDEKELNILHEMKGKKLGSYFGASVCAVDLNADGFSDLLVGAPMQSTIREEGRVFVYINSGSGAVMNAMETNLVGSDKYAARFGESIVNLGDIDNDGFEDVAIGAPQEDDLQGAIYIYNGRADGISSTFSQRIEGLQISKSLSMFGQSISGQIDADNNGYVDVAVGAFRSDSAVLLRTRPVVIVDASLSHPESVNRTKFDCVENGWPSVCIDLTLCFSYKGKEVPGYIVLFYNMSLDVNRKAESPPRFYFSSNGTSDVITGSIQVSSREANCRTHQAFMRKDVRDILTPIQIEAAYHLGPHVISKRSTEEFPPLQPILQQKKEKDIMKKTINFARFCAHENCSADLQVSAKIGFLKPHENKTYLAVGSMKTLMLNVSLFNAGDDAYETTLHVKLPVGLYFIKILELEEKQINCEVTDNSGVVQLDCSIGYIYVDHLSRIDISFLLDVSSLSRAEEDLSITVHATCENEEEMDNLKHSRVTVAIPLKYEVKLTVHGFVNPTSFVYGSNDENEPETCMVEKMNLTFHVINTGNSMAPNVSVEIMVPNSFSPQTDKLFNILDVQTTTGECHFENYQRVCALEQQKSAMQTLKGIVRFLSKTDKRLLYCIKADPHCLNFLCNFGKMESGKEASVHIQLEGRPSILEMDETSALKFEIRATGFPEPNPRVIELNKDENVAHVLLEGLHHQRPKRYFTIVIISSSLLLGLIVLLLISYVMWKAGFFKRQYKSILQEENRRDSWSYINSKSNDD
T1 sequence (P26010 20-798): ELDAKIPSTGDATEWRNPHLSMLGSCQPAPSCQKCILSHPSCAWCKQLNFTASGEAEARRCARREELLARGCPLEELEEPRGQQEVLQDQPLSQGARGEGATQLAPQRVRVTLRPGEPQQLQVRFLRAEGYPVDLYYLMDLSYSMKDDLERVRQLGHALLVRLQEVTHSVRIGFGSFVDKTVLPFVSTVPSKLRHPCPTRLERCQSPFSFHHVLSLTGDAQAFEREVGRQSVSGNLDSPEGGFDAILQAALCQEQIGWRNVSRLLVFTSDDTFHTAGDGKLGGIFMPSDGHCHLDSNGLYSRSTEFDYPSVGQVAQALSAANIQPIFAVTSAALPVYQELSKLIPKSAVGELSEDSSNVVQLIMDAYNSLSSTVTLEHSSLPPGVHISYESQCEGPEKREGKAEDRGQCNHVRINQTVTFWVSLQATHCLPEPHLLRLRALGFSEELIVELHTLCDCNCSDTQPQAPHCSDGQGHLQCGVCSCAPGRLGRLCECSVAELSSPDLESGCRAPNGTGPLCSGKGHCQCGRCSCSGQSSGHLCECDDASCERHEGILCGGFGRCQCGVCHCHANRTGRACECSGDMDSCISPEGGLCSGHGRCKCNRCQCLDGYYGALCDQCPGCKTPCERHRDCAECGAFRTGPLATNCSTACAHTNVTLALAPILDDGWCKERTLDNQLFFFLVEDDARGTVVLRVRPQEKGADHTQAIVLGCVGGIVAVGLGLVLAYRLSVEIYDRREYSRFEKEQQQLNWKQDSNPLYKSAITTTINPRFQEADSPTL
Procedure: α4β7 and α4β1 inhibition was evaluated in vitro using at least one of the following procedures:
Integrin Adhesion Assay: Protocol 1
MAdCAM (R&D Systems, 0.1 ug) was diluted in 50 μL PBS, added to each well of an opaque ELISA plate (Thermo), and incubated overnight at 4° C. Coated plates were washed once with PBS and then blocked with 200 μL of assay buffer (10 mM HEPES, 150 mM NaCl, 1 mM MnCl2, 0.1 mM CaCl2), 1% BSA) for 1 hour at 37° C. and 5% CO2. After incubation, buffer was aspirated from the plates and 50 μL of fresh assay buffer is added. Compounds were added by a compouns dispenser (Tecan) and DMSO concentration was normalized to 1% across each plate. 50 μL of RPMI-8866 cells (2×10^6 per mL) were added to each well and the plates were incubated for 1 hour at 37° C. and 5% CO2. After incubation, plates were allowed to cool to RT for 10 minutes before being washed four times in assay buffer by an automated plate washer (BioTek). After washing, 100 μL of a 1:1 mixture of assay buffer and CellTiter GLO 2.0 reagent (Promega) were added to each well. Plates were mixed for 2 minutes at 1000 rpm and then allowed to incubate an additional 10 minutes before reading out luminescence on a Tecan Spark plate reader. Raw data was converted to percent inhibition based on DMSO only and control compound wells, and curves were analyzed by 4-parameter fit within Dotmatics software.

α4β7 integrin [2] = target: T1, α4β7 integrin; test: Integrin Adhesion Assay: Protocol 4 (MAdCAM-coated plate, RPMI-8866 cells with stable LOF mutation of the ITGB1 gene)
Summary of the method: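 RPMI-8866 cells with CRISPR/Cas9 knockout of ITGB1 (2×10^6/mL) were added to MAdCAM-coated wells with compound (1% DMSO) in HEPES/NaCl buffer with 1 mM MnCl2, 0.1 mM CaCl2 and 1% BSA, then incubated 1 h at 37 °C. After four washes, adherent cells were quantified by CellTiter-Glo luminescence. Percent inhibition versus DMSO and control compound was fitted to 4-parameter curves.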

α4β1 integrin = α4β1 integrin (Homo sapiens (Human), UniProt P05556+P13612); test: Integrin Adhesion Assay: Protocol 5 (VCAM-coated plate, RPMI-8866 cells with stable LOF mutation of the ITGB7 gene)
α4β1 integrin, sequence (P13612 34-1032): as the sequence (P13612 34-1032) above
α4β1 integrin, sequence (P05556 21-798): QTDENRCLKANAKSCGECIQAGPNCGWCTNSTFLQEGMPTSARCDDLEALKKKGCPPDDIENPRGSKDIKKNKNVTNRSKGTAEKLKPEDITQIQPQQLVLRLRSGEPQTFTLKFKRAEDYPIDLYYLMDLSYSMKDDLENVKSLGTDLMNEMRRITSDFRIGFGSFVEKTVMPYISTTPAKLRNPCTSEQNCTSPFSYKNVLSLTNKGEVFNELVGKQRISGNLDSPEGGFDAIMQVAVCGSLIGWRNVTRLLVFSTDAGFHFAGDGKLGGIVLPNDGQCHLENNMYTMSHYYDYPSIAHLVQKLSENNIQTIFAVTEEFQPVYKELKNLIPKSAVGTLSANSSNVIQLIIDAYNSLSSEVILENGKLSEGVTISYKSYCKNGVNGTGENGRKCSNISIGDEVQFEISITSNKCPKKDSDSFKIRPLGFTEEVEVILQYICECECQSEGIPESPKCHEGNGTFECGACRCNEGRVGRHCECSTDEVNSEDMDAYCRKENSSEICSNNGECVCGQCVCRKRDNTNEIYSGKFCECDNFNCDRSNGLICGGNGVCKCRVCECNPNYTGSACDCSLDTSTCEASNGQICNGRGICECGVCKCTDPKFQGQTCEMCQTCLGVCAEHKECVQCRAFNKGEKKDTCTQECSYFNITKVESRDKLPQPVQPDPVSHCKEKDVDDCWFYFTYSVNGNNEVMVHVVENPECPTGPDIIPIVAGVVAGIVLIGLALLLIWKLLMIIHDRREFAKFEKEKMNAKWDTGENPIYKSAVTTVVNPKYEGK
Summary of the method: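 RPMI-8866 B cells with CRISPR/Cas9 ITGB7 knockout (clonal, verified by flow cytometry) adhered to VCAM-coated wells for 1 h at 37° C in HEPES/NaCl buffer with 1 mM MnCl2, 0.1 mM CaCl2, 1% BSA, 1% DMSO. Bound cells quantified by CellTiter-Glo luminescence after washing; % inhibition versus DMSO and control, 4-parameter fit.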

[3] = integrin adhesion assay, determined by at least one of the assays described (protocol not specified)
[4] = Protocol 4, RPMI-8866 cells with LOF mutation of ITGB1, MAdCAM, read-out: Mean IC50 α4β7 KO
[5] = Protocol 5, RPMI-8866 cells with LOF mutation of ITGB7, VCAM, read-out: Mean IC50 α4β1 KO
[6] = RPMI-8866 cells with stable LOF mutation of the ITGB1 gene, read-out: Mean IC50 α4β7 KO^a
[7] = RPMI-8866 cells with stable LOF mutation of the ITGB7 gene, read-out: Mean IC50 α4β1 KO^b

- pIC50 (α4β7 integrin [1]): < 6.00
SMILES: Cn1c(=O)c(-c2cccc3c(C[C@H](NC(=O)c4c(F)cc(C5CCCCC5)cc4F)C(=O)O)cccc23)c(C(F)(F)F)c2ccccc21 [Compound 376]

- pIC50 (α4β7 integrin [1]): < 6.00
SMILES: COc1ccn2nc(C(=O)N[C@@H](Cc3cccc4c(-c5c(C(F)(F)F)c6ccccc6n(C)c5=O)cccc34)C(=O)O)cc2c1 [Compound 427]

- pIC50 (α4β7 integrin [1]): < 6.00
SMILES: Cn1c(C(F)(F)F)cc(C(F)(F)F)c(-c2cccc3c(C[C@H](NC(=O)[C@]4(C)CC[C@H](N5CCC(F)(F)CC5)CC4)C(=O)O)cccc23)c1=O [Compound 406]

- pIC50 (α4β7 integrin [1]): < 6.00
SMILES: CN1CC(C)(Cc2cc(F)c(C(=O)N[C@@H](Cc3cccc4c(-c5c(C(F)(F)F)c6ccccc6n(C)c5=O)cccc34)C(=O)O)c(F)c2)C1 [Compound 369]

- pIC50 (α4β7 integrin [1]): < 6.00
SMILES: CN(C)Cc1ccc2c(-c3cccc4c(C[C@H](NC(=O)[C@]5(C)CC[C@H](N6CCC(F)(F)CC6)CC5)C(=O)O)cccc34)nccc2c1 [Compound 586]

- pIC50 (α4β7 integrin [2]; [4]): 6.00 to 7.00
- pIC50 (α4β1 integrin; [5]): < 6.00
SMILES: COCc1ccc2c(c1)c(C(F)(F)F)c(-c1cccc3c(CC(NC(=O)c4c(F)cccc4F)C(=O)O)cccc13)c(=O)n2C (stereo not shown) [Compound 1041]

- pIC50 (α4β7 integrin [2]; [6]): < 6.00
- pIC50 (α4β1 integrin; [7]): < 6.00
SMILES: Cn1c(=O)c(-c2cccc3c(C[C@H](NC(=O)C4(C(F)(F)F)CCN([C@H](C5CC5)C(F)(F)F)CC4)C(=O)O)cccc23)c(C(F)(F)F)c2ccccc21 [Compound 485]

- pIC50 (α4β7 integrin [2]; [6]): > 8.00
- pIC50 (α4β1 integrin; [7]): 6.00 to 7.00
SMILES: COc1ccc(CN(C)C)c(C)c1-c1cccc2c(C[C@H](NC(=O)c3c(C)cccc3F)C(=O)O)cccc12 [Compound 558]

- pIC50 (α4β7 integrin [2]; [4]): 7.00 to 8.00
- pIC50 (α4β1 integrin; [5]): < 6.00
SMILES: COc1ccc(CN2CCCC(C)(C)CC2)c(OC)c1-c1cccc2c(C[C@H](NC(=O)C3(C(F)(F)F)CCN(CC(F)(F)F)CC3)C(=O)O)cccc12 [Compound 812]

- pIC50 (α4β7 integrin [2]; [6]): 6.00 to 7.00
- pIC50 (α4β1 integrin; [7]): < 6.00
SMILES: Cn1c(=O)c(-c2cccc3c(C[C@H](NC(=O)C4(C)CN(C5CCOC(C(F)(F)F)C5)C4)C(=O)O)cccc23)c(C(F)(F)F)c2ccccc21 (stereo partly shown) [Compound 506]

- pIC50 (α4β7 integrin [2]; [6]): > 8.00
- pIC50 (α4β1 integrin; [7]): < 6.00
SMILES: O=C(O)[C@H](Cc1cccc2c(-c3nccc4ccc(CCCN5CCCCC5)cc34)cccc12)NC(=O)C1(C(F)(F)F)CCN([C@@H]2COCC2(F)F)CC1 [Compound 483]

- pIC50 (α4β7 integrin [2]; [6]): > 8.00
- pIC50 (α4β1 integrin; [7]): 6.00 to 7.00
SMILES: COc1ccc(CN2CCCCC2)c(C(F)(F)F)c1-c1cccc2c(C[C@H](NC(=O)c3c(C)cccc3F)C(=O)O)cccc12 [Compound 562]

Second part, the molecule before the results:

SMILES: Cc1nn(C2CCOCC2)c(C)c1C(=O)N[C@@H](Cc1cccc2c(-n3c(=O)ccn(C)c3=O)cccc12)C(=O)O [Compound 123]
- pIC50 (α4β7 integrin [1]; [3]): 7.00 to 8.00

SMILES: Cn1c(=O)c(-c2cccc3c(C[C@H](NC(=O)c4c(F)cc(N5CCOC(c6cccc(C(F)(F)F)c6)C5)cc4F)C(=O)O)cccc23)c(C(F)(F)F)c2ccccc21 (stereo partly shown) [Compound 342]
- pIC50 (α4β7 integrin [1]): < 6.00

SMILES: Cn1ccc(=O)n(-c2cccc3c(C[C@H](NC(=O)c4c(F)ccc(C#N)c4F)C(=O)O)cccc23)c1=O [Compound 32]
- pIC50 (α4β7 integrin [1]; [3]): 7.00 to 8.00

SMILES: Cc1nccc(O)c1C(=O)N[C@@H](Cc1cccc2c(-n3c(=O)ccn(C)c3=O)cccc12)C(=O)O [Compound 125]
- pIC50 (α4β7 integrin [1]; [3]): < 6.00

SMILES: CC(C)[C@H]1COCCN1c1cc(F)c(C(=O)N[C@@H](Cc2cccc3c(-c4c(C(F)(F)F)c5ccccc5n(C)c4=O)cccc23)C(=O)O)c(F)c1 [Compound 337]
- pIC50 (α4β7 integrin [1]): 6.00 to 7.00

SMILES: Cn1ccc(=O)n(-c2cccc3c(C[C@H](NC(=O)C4(C)CCCN(CC(F)(F)F)C4)C(=O)O)cccc23)c1=O (stereo partly shown) [Compound 121]
- pIC50 (α4β7 integrin [1]; [3]): < 6.00

SMILES: Cn1ccc(=O)n(-c2cccc3c(C[C@H](NC(=O)[C@@H]4CCCN4S(=O)(=O)c4ccccc4)C(=O)O)cccc23)c1=O [Compound 109]
- pIC50 (α4β7 integrin [1]; [3]): 6.00 to 7.00

SMILES: CC1(C)NC(=O)c2c(-c3cccc4c(C[C@H](NC(=O)c5c(F)cccc5F)C(=O)O)cccc34)cccc21 [Compound 5]
- pIC50 (α4β7 integrin [1]; [3]): 7.00 to 8.00

SMILES: Cn1c(=O)c(-c2cccc3c(C[C@H](NC(=O)c4c(F)cc(N5CCO[C@@H](c6ccccc6)C5)cc4F)C(=O)O)cccc23)c(C(F)(F)F)c2ccccc21 [Compound 338]
- pIC50 (α4β7 integrin [1]): < 6.00
